The source of these data is ChEMBL document CHEMBL1143350, “Structure and activity of (2,8)-dicarba-(3,12)-cystino alpha-ImI, an alpha-conotoxin containing a nonreducible cystine analogue” (J Med Chem, 2009).

Activity calls are given as the source filed them. The calls are words filed in the database; no cut-off is given here.

The nature of test [1]: (§1) Antagonist activity at nAChR in nicotine-stimulated bovine adrenal chromaffin cells assessed as inhibition of noradrenaline release preincubated for 5 mins before nicotine challenge by RP-HPLC. Type of test: functional. The conditions noted are these: Bos taurus.
For test [2], the species on record is Bos taurus. The test is described as §1. Type of test: functional.
Test [3] in a line: (§2) Antagonist activity at nAChR in nicotine-stimulated bovine adrenal chromaffin cells assessed as inhibition of adrenaline release preincubated for 5 mins before nicotine challenge by RP-HPLC. Type of test: functional. The conditions noted are these: Bos taurus.
The species entered for test [4] is Bos taurus. The description is as §2. Type of test: functional.
The target in test [5] is Neuronal acetylcholine receptor subunit alpha-7 (Rattus norvegicus) (UniProt Q05941). The test is described as follows: Antagonist activity at rat alpha7 nAChR expressed in Xenopus laevis oocytes assessed as inhibition of acetylcholine-evoked ion current at 2.5 uM treated 3 mins prior to acetylcholine challenge measured after 2 to 4 days by two-electrode voltage clamp method. Type of test: functional, cell-based. More on the design: scale not given: the % may be the effect or the level left. The conditions noted are these: Oocyte. For orientation: In two-electrode clamp one electrode senses voltage and the other passes current.
Chain of Neuronal acetylcholine receptor subunit alpha-7 (Rattus norvegicus) (Q05941 whole entry): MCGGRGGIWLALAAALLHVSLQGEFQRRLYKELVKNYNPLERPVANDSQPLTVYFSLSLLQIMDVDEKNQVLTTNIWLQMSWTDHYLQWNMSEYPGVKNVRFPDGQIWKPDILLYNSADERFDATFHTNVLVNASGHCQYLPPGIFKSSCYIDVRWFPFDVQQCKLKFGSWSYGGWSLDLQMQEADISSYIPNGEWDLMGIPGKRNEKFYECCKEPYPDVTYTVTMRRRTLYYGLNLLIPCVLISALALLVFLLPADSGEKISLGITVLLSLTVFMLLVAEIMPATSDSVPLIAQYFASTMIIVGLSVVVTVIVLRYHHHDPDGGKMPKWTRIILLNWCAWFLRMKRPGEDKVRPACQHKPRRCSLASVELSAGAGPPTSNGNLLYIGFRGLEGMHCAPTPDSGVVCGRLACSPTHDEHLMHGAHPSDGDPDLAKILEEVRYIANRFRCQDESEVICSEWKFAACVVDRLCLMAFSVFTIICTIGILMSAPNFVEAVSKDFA

The target is the same in test [6]. The test is described as follows: Activation of rat alpha7 nAChR expressed in Xenopus laevis oocytes at 2.5 uM. Type of test: cell-based. The conditions noted are these: Oocyte.

In general, IC50 refers to the concentration that inhibits the measured activity by half. In the case of `C=CN(CC(=O)NC1C/C=C/CC2NC(=O)[C@H](CCCNC(=N)N)NC(=O)[C@@H]3CCCN3C(=O)[C@H](CC(=O)O)NC(=O)[C@H](CO)NC(=O)[C@H](CSSC[C@@H](C(=O)O)NC(=O)[C@H](CCCNC(=N)N)NC(=O)[C@H](Cc3c[nH]c4ccccc34)NC(=O)[C@H](C)NC2=O)NC1=O)C(=O)CN` (single isomer, unassigned), the IC50 in test [1] turned out to be 20 µM; in test [3], 15 µM. The Activity result in test [2] and in test [4] was “Dose-dependent effect” each time. For the same molecule, the outcome in test [5] was inactive.
Regarding `C[C@H](NC(=O)[C@H](CS)NC(=O)[C@H](CCCNC(=N)N)NC(=O)[C@@H]1CCCN1C(=O)[C@H](CC(=O)O)NC(=O)[C@H](CO)NC(=O)[C@H](CS)NC(=O)[C@H](CS)NC(=O)CN)C(=O)N[C@@H](Cc1c[nH]c2ccccc12)C(=O)N[C@@H](CCCNC(=N)N)C(=O)N[C@@H](CS)C(N)=O`, the IC50 amounted to 0.87 µM in test [1] and 1.12 µM in test [3]. In addition, the Activity result is “Dose-dependent effect” in test [2], “Dose-dependent effect” in test [4] and 68% in test [5]. In addition, the result in test [6] was inactive.
As for `C=CN(CC(=O)NC1C/C=C\CC2NC(=O)[C@H](CCCNC(=N)N)NC(=O)[C@@H]3CCCN3C(=O)[C@H](CC(=O)O)NC(=O)[C@H](CO)NC(=O)[C@H](CSSC[C@@H](C(=O)O)NC(=O)[C@H](CCCNC(=N)N)NC(=O)[C@H](Cc3c[nH]c4ccccc34)NC(=O)[C@H](C)NC2=O)NC1=O)C(=O)CN` (single isomer, unassigned; isomer I), the values for the IC50 in test [1] and in test [3] were 17 µM and 10 µM, respectively. Further, the Activity entry in test [2] is “Dose-dependent effect”; in test [4] it was “Dose-dependent effect”; in test [5] it was 60%. Also, the outcome in test [6] was inactive.
